This is an account of results in US9993570B2, “Radiolabeled tracers for poly (ADP-ribose) polymerase-1 (PARP-1), methods and uses therefor” (Washington University, priority 2014, dated 2018).

The assay has as its system Lung cell lines NCI-h69 and NCI-h82. The assay is described as follows: [18F]WC-4-138 uptake in cell culture, small cell lung cancer lines. It counts as cell-based. The conditions noted are these: NCI-h69 and NCI-h82, incubation 5, 30 or 60 minutes, normalized to protein. The protocol: In these experiments, the head and neck squamous cell carcinoma lines SCC1, SCC15, and SCC25 (ATCC) were propagated in Dulbecco's Modified Eagle's Medium (DMEM, Gibco) supplemented with 10% Fetal Bovine Serum (FBS, Gibco), Penicillin-Streptomycin (P/S, Gibco), and 100 ng/ml hydrocortisone (Sigma-Aldrich). The small cell lung cancer lines NCI-h69 and NCI-h82 (ATCC) were propagated m RPMI Medium (Gibco) supplemented with 10% FBS and 1% P/S. The human breast cancer cell line MDA-MB-231 (ATCC) was propagated in Eagle's Minimum Essential Medium (Gibco) supplemented with 5% FBS, 2% Vitamins for MEM (Gibco), 1% 200 mM L-glutamine (Gibco), 1% 10 mM Non-Essential Amino Acid (NEAA, Gibco).
For each experimental replicate, approximately 1 μCi of [^18F]WC-4-138 was diluted in 1 ml of cell culture medium and added to 10^6 cells. […] Radioactivity was measured in the collected medium, PBS, or cell pellets. Protein from the cell pellet was quantified using a […]. All data were decay-corrected and normalized to total protein quantity in the cell pellet. […]
The head and neck cell lines SCC1 and SCC25 constitutively take up small amounts of tracer, registering as 0.001-0.002 μCi/μg in the cell pellet (FIG. 5A). […] PARP activity was measured in HNSCC or lung SCLC cells. […]

On to `O=C1NCCn2c(-c3ccc(OCC[18F])cc3)nc3cccc1c32` [[^18F]12], for which the “tracer uptake in the cell pellet” value is listed as 0.004-0.006 μCi/μg.
